Reference: ChEMBL document CHEMBL1781988, “Quinolizidinyl derivatives of bi- and tricyclic systems as potent inhibitors of acetyl- and butyrylcholinesterase with potential in Alzheimer's disease” (Eur J Med Chem, 2011)

Assays:
Cholinesterase [1] = target: Cholinesterase (Equus caballus, UniProt P81908)
Description: Inhibition of Equine serum BChE using butyrylthiocholine iodide as a substrate after 20 mins by Ellman's assay

[2] = Selectivity index, ratio of IC50 for bovine erythrocyte AChE to IC50 for Equine serum BChE
Acetylcholinesterase [3] = target: T1, Acetylcholinesterase (Bos taurus, UniProt P23795)
T1 sequence (P23795 whole entry): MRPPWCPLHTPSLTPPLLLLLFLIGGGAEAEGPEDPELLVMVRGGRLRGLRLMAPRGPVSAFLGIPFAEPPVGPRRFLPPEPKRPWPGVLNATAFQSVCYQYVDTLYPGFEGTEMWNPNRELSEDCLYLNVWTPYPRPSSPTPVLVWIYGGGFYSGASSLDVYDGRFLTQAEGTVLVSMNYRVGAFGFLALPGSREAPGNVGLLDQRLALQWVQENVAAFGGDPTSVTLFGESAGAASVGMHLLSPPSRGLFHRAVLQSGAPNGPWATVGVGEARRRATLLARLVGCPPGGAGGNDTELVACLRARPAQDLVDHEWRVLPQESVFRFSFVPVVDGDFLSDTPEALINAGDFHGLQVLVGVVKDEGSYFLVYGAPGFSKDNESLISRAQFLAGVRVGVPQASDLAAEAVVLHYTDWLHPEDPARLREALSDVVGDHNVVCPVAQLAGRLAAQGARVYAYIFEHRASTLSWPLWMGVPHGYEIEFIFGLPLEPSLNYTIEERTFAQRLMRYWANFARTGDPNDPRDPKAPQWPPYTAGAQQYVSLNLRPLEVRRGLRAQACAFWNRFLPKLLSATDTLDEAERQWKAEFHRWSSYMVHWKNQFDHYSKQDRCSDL
Description: Inhibition of bovine erythrocyte AChE using acetylthiocholine iodide as a substrate after 20 mins by Ellman's assay

[4] = target: Muscarinic acetylcholine receptor; experiment: Inhibition of muscarinic receptor in rat brain synaptosomes; format: subcellular
[5] = target: Cholinesterase (Equus caballus) (UniProt P81908); experiment: Inhibition of Equine serum BChE using butyrylthiocholine iodide as a substrate at 10 uM after 20 mins by Ellman's assay
Acetylcholinesterase [6] = target: T2, Acetylcholinesterase (Homo sapiens, UniProt P22303)
Description: Inhibition of human plasma AChE

Acetylcholinesterase [7] = target: T2, Acetylcholinesterase; remark: listed apart in the source
Description: Inhibition of human erythrocytes AChE

Cholinesterase [8] = target: Cholinesterase (Homo sapiens, UniProt P06276)
Chain of Cholinesterase (Homo sapiens, UniProt P06276) (P06276 whole entry, looked up): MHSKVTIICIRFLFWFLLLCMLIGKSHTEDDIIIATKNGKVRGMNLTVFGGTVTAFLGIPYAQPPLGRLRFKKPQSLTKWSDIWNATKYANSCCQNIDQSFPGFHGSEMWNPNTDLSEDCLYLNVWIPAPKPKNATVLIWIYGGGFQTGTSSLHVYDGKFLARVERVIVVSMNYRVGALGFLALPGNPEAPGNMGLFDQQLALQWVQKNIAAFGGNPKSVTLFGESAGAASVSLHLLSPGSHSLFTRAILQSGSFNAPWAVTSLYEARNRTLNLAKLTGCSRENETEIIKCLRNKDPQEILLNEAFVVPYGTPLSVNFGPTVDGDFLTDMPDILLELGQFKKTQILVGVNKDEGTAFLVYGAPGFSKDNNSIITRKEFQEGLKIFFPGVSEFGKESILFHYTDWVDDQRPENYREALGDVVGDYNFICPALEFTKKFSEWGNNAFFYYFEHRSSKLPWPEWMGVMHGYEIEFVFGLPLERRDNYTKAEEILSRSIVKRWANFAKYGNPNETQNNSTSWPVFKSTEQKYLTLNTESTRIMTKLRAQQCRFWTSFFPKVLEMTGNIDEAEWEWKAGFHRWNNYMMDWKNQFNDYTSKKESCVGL
Description: Inhibition of human plasma BChE

T2 sequence (P22303 whole entry): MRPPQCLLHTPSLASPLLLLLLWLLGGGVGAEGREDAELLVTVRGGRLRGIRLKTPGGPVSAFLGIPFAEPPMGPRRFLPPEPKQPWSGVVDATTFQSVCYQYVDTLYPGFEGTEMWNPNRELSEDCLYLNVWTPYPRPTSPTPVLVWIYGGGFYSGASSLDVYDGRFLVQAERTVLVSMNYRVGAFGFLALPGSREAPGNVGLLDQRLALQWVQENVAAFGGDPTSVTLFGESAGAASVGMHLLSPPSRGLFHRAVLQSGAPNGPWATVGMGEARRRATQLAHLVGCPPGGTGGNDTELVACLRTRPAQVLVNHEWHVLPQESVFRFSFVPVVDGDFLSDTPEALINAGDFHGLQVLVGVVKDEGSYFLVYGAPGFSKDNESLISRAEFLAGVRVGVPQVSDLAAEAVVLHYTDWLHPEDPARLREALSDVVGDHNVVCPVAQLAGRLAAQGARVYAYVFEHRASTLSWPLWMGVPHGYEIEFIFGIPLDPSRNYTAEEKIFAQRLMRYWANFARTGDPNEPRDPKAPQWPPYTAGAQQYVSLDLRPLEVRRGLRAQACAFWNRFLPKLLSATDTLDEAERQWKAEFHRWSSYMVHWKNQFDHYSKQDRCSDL
Chain of Cholinesterase (Equus caballus) (P81908 whole entry): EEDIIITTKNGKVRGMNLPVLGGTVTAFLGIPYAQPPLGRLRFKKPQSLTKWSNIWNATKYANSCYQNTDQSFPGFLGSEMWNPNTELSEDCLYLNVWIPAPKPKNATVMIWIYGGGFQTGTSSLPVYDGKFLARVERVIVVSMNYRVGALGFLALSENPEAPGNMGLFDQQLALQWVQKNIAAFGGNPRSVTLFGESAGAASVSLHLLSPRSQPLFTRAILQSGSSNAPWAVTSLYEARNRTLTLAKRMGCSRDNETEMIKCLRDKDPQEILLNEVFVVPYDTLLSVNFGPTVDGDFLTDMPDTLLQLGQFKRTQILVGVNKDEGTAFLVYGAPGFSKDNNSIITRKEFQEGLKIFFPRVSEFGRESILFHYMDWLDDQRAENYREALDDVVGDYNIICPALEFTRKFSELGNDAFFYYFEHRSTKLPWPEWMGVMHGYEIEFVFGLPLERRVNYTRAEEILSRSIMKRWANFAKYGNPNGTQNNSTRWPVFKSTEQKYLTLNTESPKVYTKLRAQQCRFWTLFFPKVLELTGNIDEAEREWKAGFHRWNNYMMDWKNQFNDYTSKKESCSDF
Chain of Cholinesterase (Equus caballus, UniProt P81908) (P81908 whole entry): as above

c1ccc2c(c1)Cc1ccccc1N2C[C@@H]1CCCN2CCCC[C@H]12
IC50 (Cholinesterase [1]): 1400 nM

O=C(CCCSC[C@@H]1CCCN2CCCC[C@H]12)N1c2ccccc2Sc2ccccc21
IC50 (Cholinesterase [1]): 740 nM
Ratio IC50 [2]: 9.2
IC50 (Acetylcholinesterase [3]): 6800 nM

c1ccc2c(c1)Sc1ccccc1C2C[C@@H]1CCCN2CCCC[C@H]12
IC50 (Cholinesterase [1]): 150 nM
Ratio IC50 [2]: 47
IC50 (Acetylcholinesterase [3]): 7000 nM
IC50 [4]: 100 nM

c1ccc2c(c1)[Se]c1ccccc1N2C[C@@H]1CCCN2CCCC[C@H]12
IC50 (Cholinesterase [1]): 1100 nM

c1ccc2c(c1)-c1ccccc1C2C[C@@H]1CCCN2CCCC[C@H]12
IC50 (Cholinesterase [1]): 630 nM

O=c1ccc2cc(OCCCSC[C@@H]3CCCN4CCCC[C@H]34)ccc2o1
IC50 (Cholinesterase [1]): 5400 nM
Ratio IC50 [2]: 0.06
IC50 (Acetylcholinesterase [3]): 5400 nM

C1=Cc2ccccc2N(C[C@@H]2CCCN3CCCC[C@H]23)c2ccccc21
IC50 (Cholinesterase [1]): 2200 nM
Ratio IC50 [2]: 3.8
IC50 (Acetylcholinesterase [3]): 8300 nM

COc1ccc2nc3cc(Cl)ccc3c(SC[C@@H]3CCCN4CCCC[C@H]34)c2c1
IC50 (Cholinesterase [1]): 4700 nM

COc1ccc2nc3cc(Cl)ccc3c(NC[C@@H]3CCCN4CCCC[C@H]34)c2c1
IC50 (Cholinesterase [1]): 870 nM
Ratio IC50 [2]: 8.4
IC50 (Acetylcholinesterase [3]): 7300 nM

C1=Cc2ccccc2C(=C[C@@H]2CCCN3CCCC[C@H]23)c2ccccc21
IC50 (Cholinesterase [1]): 2000 nM
Ratio IC50 [2]: 4.1
IC50 (Acetylcholinesterase [3]): 8300 nM

O=c1ccc2cc(OCCCNC[C@@H]3CCCN4CCCC[C@H]34)ccc2o1
inhibition [5]: 40%
IC50 (Acetylcholinesterase [3]): 6600 nM

COc1ccc2nc3cc(Cl)ccc3c(NCCSC[C@@H]3CCCN4CCCC[C@H]34)c2c1
IC50 (Cholinesterase [1]): 340 nM
Ratio IC50 [2]: 2.5
IC50 (Acetylcholinesterase [3]): 840 nM

c1ccc2c(c1)Sc1ccccc1N2C1CN2CCC1CC2 (stereo unspecified)
IC50 (Cholinesterase [1]): 3000 nM
IC50 [4]: 100 nM

O=C(C[C@@H]1CCCN2CCCC[C@H]12)N1c2ccccc2Sc2ccccc21 [HOMOLUPINANOYLPHENOTHIAZINE]
IC50 (Cholinesterase [1]): 3000 nM

O=C1Nc2cccnc2N(C[C@@H]2CCCN3CCCC[C@H]23)c2ccccc21
inhibition [5]: 28%

c1ccc2c(c1)[Se]c1ccccc1N2C[C@H]1CCCN2CCCC[C@H]12
IC50 (Cholinesterase [1]): 870 nM

O=C(CSC[C@@H]1CCCN2CCCC[C@H]12)N1c2ccccc2Sc2ccccc21
IC50 (Cholinesterase [1]): 430 nM

O=C(CCCCSC[C@@H]1CCCN2CCCC[C@H]12)N1c2ccccc2Sc2ccccc21
IC50 (Cholinesterase [1]): 890 nM
Ratio IC50 [2]: 6.4
IC50 (Acetylcholinesterase [3]): 5700 nM

CCN(CC)C(C)C(=O)N1c2ccccc2Sc2ccccc21 (stereo unspecified)
IC50 (Cholinesterase [1]): 840 nM

CCCCCCCNC(=O)Oc1ccc2c(c1)[C@]1(C)CCN(C)[C@@H]1N2C [EPTASTIGMINE]
IC50 (Acetylcholinesterase [6]): 22000 nM

CN(C)CC(C)(C)c1cccc(OC(=O)NCCCCN2CCOCC2)c1
IC50 (Acetylcholinesterase [7]): 100000 nM
IC50 (Acetylcholinesterase [6]): 100000 nM
IC50 (Cholinesterase [8]): 9 nM

O=C(C[C@H]1CCCN2CCCC[C@H]12)N1c2ccccc2Sc2ccccc21
IC50 (Cholinesterase [1]): 4800 nM

C[N+]12CCCC[C@@H]1[C@H](CN1c3ccccc3Sc3ccccc31)CCC2 (stereo partly specified)
IC50 (Cholinesterase [1]): 510 nM

C(=C(c1ccccc1)c1ccccc1)[C@@H]1CCCN2CCCC[C@H]12
IC50 (Cholinesterase [1]): 3800 nM

O=C1Nc2cccnc2N(CSC[C@@H]2CCCN3CCCC[C@H]23)c2ccccc21
inhibition [5]: 34%

OC1(C[C@@H]2CCCN3CCCC[C@H]23)c2ccccc2Sc2ccccc21
IC50 (Cholinesterase [1]): 950 nM

COc1ccc2nc3cc(Cl)ccc3c(NCCCSC[C@@H]3CCCN4CCCC[C@H]34)c2c1
IC50 (Cholinesterase [1]): 690 nM
Ratio IC50 [2]: 0.32
IC50 (Acetylcholinesterase [3]): 220 nM

N#Cc1ccc2c(c1)N(CCCN1CCC(O)CC1)c1ccccc1S2 [PERICIAZINE]
IC50 (Cholinesterase [1]): 230 nM
Ratio IC50 [2]: 30
IC50 (Acetylcholinesterase [3]): 7000 nM

CC(SC[C@@H]1CCCN2CCCC[C@H]12)C(=O)N1c2ccccc2Sc2ccccc21 (stereo partly specified)
IC50 (Cholinesterase [1]): 470 nM

O=c1ccc2cc(OCCCCSC[C@@H]3CCCN4CCCC[C@H]34)ccc2o1
IC50 (Cholinesterase [1]): 4300 nM
Ratio IC50 [2]: 0.28
IC50 (Acetylcholinesterase [3]): 1200 nM

FC(F)(F)c1ccc2c(c1)N(C[C@@H]1CCCN3CCCC[C@H]13)c1ccccc1S2
IC50 (Cholinesterase [1]): 4000 nM

c1ccc(N(C[C@@H]2CCCN3CCCC[C@H]23)c2ccccc2)cc1
IC50 (Cholinesterase [1]): 8100 nM
Ratio IC50 [2]: 1.1
IC50 (Acetylcholinesterase [3]): 8900 nM

c1ccc2c(c1)CCc1ccccc1N2C[C@@H]1CCCN2CCCC[C@H]12
IC50 (Cholinesterase [1]): 2200 nM

c1ccc(C(C[C@@H]2CCCN3CCCC[C@H]23)c2ccccc2)cc1
IC50 (Cholinesterase [1]): 5500 nM
Ratio IC50 [2]: 1.2
IC50 (Acetylcholinesterase [3]): 6700 nM

C(=C1c2ccccc2CCc2ccccc21)[C@@H]1CCCN2CCCC[C@H]12
IC50 (Cholinesterase [1]): 4200 nM

c1ccc2c(c1)Oc1ccccc1N2C[C@@H]1CCCN2CCCC[C@H]12
IC50 (Cholinesterase [1]): 2200 nM

c1ccc2c(c1)Sc1ccccc1N2C[C@@H]1CCCN2CCCC[C@H]12 [LUPINYLPHENOTHIAZINE]
IC50 (Cholinesterase [1]): 2000 nM
IC50 [4]: 100 nM

C[N+]12CCCC[C@@H]1[C@H](CC1c3ccccc3Sc3ccccc31)CCC2 (stereo partly specified)
IC50 (Cholinesterase [1]): 410 nM

C(=C1c2ccccc2Sc2ccccc21)[C@@H]1CCCN2CCCC[C@H]12
IC50 (Cholinesterase [1]): 930 nM

CN1CCCC(CC2c3ccccc3Sc3ccccc32)C1 (stereo unspecified) [METHIXENE]
IC50 (Cholinesterase [1]): 1600 nM

c1ccc2c(c1)-c1ccccc1C2C[C@H]1CCCN2CCCC[C@H]12
IC50 (Cholinesterase [1]): 1100 nM

c1ccc2c(c1)CCc1ccccc1N2CSC[C@@H]1CCCN2CCCC[C@H]12
IC50 (Cholinesterase [1]): 860 nM

c1ccc(C(SC[C@@H]2CCCN3CCCC[C@H]23)c2ccccc2)cc1
IC50 (Cholinesterase [1]): 3300 nM

CCN(CC)C(C)CN1c2ccccc2Sc2ccccc21 (stereo unspecified) [ETHOPROPAZINE]
IC50 (Cholinesterase [1]): 720 nM
IC50 (Cholinesterase [8]): 300 nM

CC(C)c1ccc(NC(=O)Oc2ccc3c(c2)[C@]2(C)CCN(CCc4ccccc4)[C@@H]2N3C)cc1
IC50 (Acetylcholinesterase [7]): > 30000 nM
IC50 (Acetylcholinesterase [6]): > 30000 nM
IC50 (Cholinesterase [8]): 6 nM

c1ccc2c(c1)c1ccccc1n2C[C@@H]1CCCN2CCCC[C@H]12
IC50 (Cholinesterase [1]): 2000 nM

O=C(CCSC[C@@H]1CCCN2CCCC[C@H]12)N1c2ccccc2Sc2ccccc21
IC50 (Cholinesterase [1]): 750 nM

COc1ccc2c(c1)N(C(=O)CSC[C@@H]1CCCN3CCCC[C@H]13)c1ccccc1S2
IC50 (Cholinesterase [1]): 1200 nM

O=c1ccc2cc(OCCCCCSC[C@@H]3CCCN4CCCC[C@H]34)ccc2o1
IC50 (Cholinesterase [1]): 5800 nM
Ratio IC50 [2]: 0.12
IC50 (Acetylcholinesterase [3]): 680 nM
